Measured values as given in patent US20190069576A1, “Solid Form Nutrient Compositions” (Railsplitter Feed Technology, Inc., priority 2016, published 2019).

Test system: infant pigs
Test: Hemoglobin measurement of pigs treated with granular materials or iron dextran injections
Format: in vivo, pig
Method: In Example 6, four litters of pigs were provided granular product (sample numbers 272 and 280). These litters were offered these granular products ad litum from birth to 21 days of birth. Two litters were not offered granular material, but were instead injected with iron dextran on day 3 after birth with 1 cc of 200 mg of iron dextran. Two other litters, also not offered granular material, were injected twice, once on day 3, and once on day 10 after birth. Each injection was a 1 cc injection of 200 mg of iron dextran.
The National Research Council in the Nutrient Requirement of Swine publication recommends that levels of iron dextran providing more than 200 mg per pig in one injection be avoided. Many producers provide a second injection to minimize the deficiency which doubles the cost of preventing anemia in young pigs, and increases the probability of spreading pathogens with needles.
Hemoglobin analysis is an excellent way to quantitate the adequacy of iron for the pig but the treatment differences are obvious by just viewing the litters.
A striking difference between healthy hemoglobin adequate pigs and anemic pigs is the color of the skin. This is most obvious in white pigs, and most pigs in US have some white color in their breed lineage. Pigs with hemoglobin values above 10 gm per 100 ml. have extremely bright, pink skin, while anemic pigs have very pale almost white color of the skin.

[1] = 1 injection, day 3, 1 cc of 200 mg, first litter (12 pigs)
[2] = 1 injection, second litter (10 pigs)
[3] = 2 injections, day 3 and day 10, each 1 cc of 200 mg, first litter (7 pigs)
[4] = 2 injections, second litter (11 pigs)

## iron dextran
[1]
  Pigs <10 gm % (hemoglobin): 10
  Pigs >10 gm % (hemoglobin): 2
[2]
  Pigs <10 gm % (hemoglobin): 4
  Pigs >10 gm % (hemoglobin): 6
1 injection, total of 22 pigs
  % with adequate Hemoglobin: 36%
  Pigs <10 gm % (hemoglobin): 14
  Pigs >10 gm % (hemoglobin): 8
[3]
  Pigs <10 gm % (hemoglobin): 2
  Pigs >10 gm % (hemoglobin): 5
[4]
  Pigs <10 gm % (hemoglobin): 2
  Pigs >10 gm % (hemoglobin): 9
2 injections, total of 18 pigs
  % with adequate Hemoglobin: 77%
  Pigs <10 gm % (hemoglobin): 4
  Pigs >10 gm % (hemoglobin): 14
